Laboratory results taken from US11932874B2, “Method for culturing mesenchymal stem cells using gamma-irradiated serum” (R Bio CO., Ltd., priority 2018, dated 2024).

Tests used:
Format in all cases: cell-based
[1] = tested on: human adipose tissue-derived stem cells; assay: Culture of stem cells using 25 kGy gamma-irradiated FBS with vitamin C pre- or post-treatment (Example 3): cell number, doubling time; conditions: for Cell No. / Doubling time: Ad-MSC (P4), 4 days of culture
Method: After 4 days of culture, the cell proliferation rate and doubling time of the cells were examined. The viability of the cells was examined with a microscope and a hemocytometer, and the doubling time was calculated using the following equation: Doubling Time=duration×log(2)/log(final concentration)−log(initial concentration). [Equation 1] Fetal bovine serum (FBS) was irradiated with 25 kGy of gamma radiation, thereby preparing gamma-irradiated FBS. Vitamin C (ascorbic acid; L-Ascorbic Acid 2-phosphate) was added to the FBS which was then irradiated with 25 kGy of gamma irradiation, thereby preparing gamma-irradiated FBS pretreated with vitamin C. The vitamin C was added to the FBS at a concentration of 0.1% or 1%. Then, the human adipose tissue-derived stem cells at passage 3, isolated in Example 1, were thawed and inoculated into T75 flasks at a concentration of 0.5×10^6 cells/T75 flask, and the inoculated cells were cultured with AMSC+ culture medium (R-Bio Co., Ltd.) containing the prepared gamma-irradiated FBS or gamma-irradiated FBS pretreated with vitamin C at a concentration of 5% in a CO2 incubator at 37° C. for 2 days. After 2 days of culture, the medium was removed and replaced with AMSC+ culture medium containing 5% gamma-irradiated FBS (a negative control group), medium obtained by adding vitamin C to AMSC+ culture medium containing 5% gamma-irradiated FBS (a vitamin C post-treatment test group), or AMSC+ culture medium containing 5% gamma-irradiated FBS pretreated with vitamin C (a vitamin C pre-treatment test group). Vitamin C was added to the culture medium or FBS at a concentration of 0.1 or 1%. After 4 days of culture, the cell proliferation rate and doubling time of the cells were examined in the same manner as described in Example 2 above. A positive control group was also prepared as described in Example 2 above.

[2] = tested on: human adipose tissue-derived stem cells; assay: Adhesion and proliferation rate of stem cells cultured in 30 kGy gamma-irradiated FBS over passages (Example 6); conditions: 30 kGy FBS
Method: Fetal bovine serum (FBS) was irradiated with 30 kGy of gamma radiation, thereby preparing gamma-irradiated FBS. The gamma-irradiated FBS was added to AMSC+ culture medium (R-Bio Co., Ltd.) at a concentration of 5%, and 1% vitamin C was added to the culture medium, thereby preparing a medium (a vitamin C post-treatment group). Then, the human adipose tissue-derived stem cells at passage 1, isolated in Example 1, were thawed and inoculated into T25 flasks at a concentration of 0.7×10^3 cells/T25 flask, and the inoculated cells were cultured with AMSC+ culture medium (R-Bio Co., Ltd.) containing the prepared gamma-irradiated FBS at a concentration of 5% in a CO2 incubator at 37° C. for 2 days. After 2 days of culture, the medium was removed and replaced with AMSC+ culture medium containing 5% normal FBS (a positive control group), or medium obtained by adding vitamin C to AMSC+ culture medium containing 5% gamma-irradiated FBS (a vitamin C post-treatment test group). Vitamin C was added to the culture medium at a concentration of 1%. […] The stem cell adhesion shown in FIGS. 11A-11C was examined with a Leica microscope, and the cell number, cell size and viability shown in Tables 6 to 9 were examined with Luna™ Automated cell counter L10001 (Logos Biosystems).

[3] = tested on: human adipose tissue-derived stem cells; assay: Differentiation into chondrocytes, TSP2 ELISA (Example 7); conditions: 30 KGy gamma radiation, post-treated with 1% vitamin C, passage 4
Method: (§1) For the positive control group and vitamin C post-treatment test group of Example 6, the purity and characteristics of the stem cells at passage 4 were examined. The purity of the stem cells was examined by analyzing the expression of CD markers using FACS (FIG. 12 and Table 10), and the characteristics of the stem cells were examined by analyzing differentiation into adipocytes, osteocytes and chondrocytes (FIGS. 13 to 15). Differentiation into adipocytes was analyzed by oil red 0 staining according to the Sigma-Aldrich protocol, and differentiation into osteocytes was analyzed by alizarin red S staining according to the Lifeline Cell Tech's protocol, and differentiation into chondrocytes was analyzed by TSP2 ELISA.

[4] = tested on: human adipose tissue-derived stem cells; assay: Differentiation into osteocytes, alizarin red S staining (Example 7); conditions: 30 KGy gamma radiation, post-treated with 1% vitamin C, passage 4
Method: as §1

[5] = tested on: human adipose tissue-derived stem cells; assay: Differentiation into adipocytes, oil red O staining (Example 7); conditions: 30 KGy gamma radiation, post-treated with 1% vitamin C, passage 4
Method: as §1

[6] = tested on: human adipose tissue-derived stem cells; assay: Expression of stem cell CD markers by FACS (Example 7); set-up: CD73 expression (FACS) / CD31 expression (FACS) / CD34 expression (FACS) / CD45 expression (FACS): unit not given here; conditions: for CD31 expression (FACS) / CD34 expression (FACS) / CD45 expression (FACS) / CD73 expression (FACS) / CD90 expression (FACS): 30 kGy FBS; for CD90 expression (FACS): in % (unit assumed)
Method: as §1

[7] = 0.1% AA2P post-treatment + 25 KGy
[8] = 0.1% AA2P pre-treatment + 25 KGy
[9] = 1% AA2P post-treatment + 25 KGy
[10] = Stem cells #1 P1, 1% vitamin C post-treatment
[11] = Stem cells #1 P2, 1% vitamin C post-treatment
[12] = Stem cells #1 P3, 1% vitamin C post-treatment
[13] = Stem cells #1 P4, 1% vitamin C post-treatment
[14] = Stem cells #2 P1, 1% vitamin C post-treatment
[15] = Stem cells #2 P2, 1% vitamin C post-treatment
[16] = Stem cells #2 P3, 1% vitamin C post-treatment
[17] = Stem cells #2 P4, 1% vitamin C post-treatment
[18] = Stem cells #3 P1, 1% vitamin C post-treatment
[19] = Stem cells #3 P2, 1% vitamin C post-treatment
[20] = Stem cells #3 P3, 1% vitamin C post-treatment
[21] = Stem cells #3 P4, 1% vitamin C post-treatment

SMILES: O=C1O[C@H]([C@@H](O)CO)C(O)=C1OP(=O)(O)O [AA2P, L-Ascorbic Acid 2-phosphate]
- Cell No. [1, 7]: 10.6 ×10^6 cells
- Doubling time [1, 7]: 21 h
- Cell No. [1, 8]: 10.2 ×10^6 cells
- Doubling time [1, 8]: 21 h
- Cell No. [1, 9]: 14.0 ×10^6 cells
- Doubling time [1, 9]: 19 h
- Cell No. ([1]; 1% AA2P pre-treatment + 25 KGy): 10.0 ×10^6 cells
- Doubling time ([1]; 1% AA2P pre-treatment + 25 KGy): 21 h
- cell number and doubling time versus positive control group ([1]; vitamin C post-treatment and pre-treatment test groups, 25 kGy FBS, 4 days): increased to the levels of the positive control group
- microscope observation of stem cells ([1]; vitamin C post-treatment and pre-treatment test groups, 25 kGy FBS, day 4 (FIG. 3)): levels similar to those of the positive control group
- adhesion, cell number, cell size and viability versus positive control group ([2]; 1% vitamin C post-treatment, stem cells at passages 2 to 4): did not differ from those of the positive control group
- Cell number [2, 10]: 2.4 × 10^7 cells
- Cell size [2, 10]: 19.1 μm
- Viability [2, 10]: 84.4%
- Cell number [2, 11]: 1.6 × 10^7 cells
- Cell size [2, 11]: 19.5 μm
- Viability [2, 11]: 83%
- Cell number [2, 12]: 2.0 × 10^7 cells
- Cell size [2, 12]: 19.2 μm
- Viability [2, 12]: 88.7%
- Cell number [2, 13]: 3.3 × 10^8 cells
- Cell size [2, 13]: 20 μm
- Viability [2, 13]: 87.5%
- Cell number [2, 14]: 1.8 × 10^7 cells
- Cell size [2, 14]: 20 μm
- Viability [2, 14]: 89.6%
- Cell number [2, 15]: 1.8 × 10^7 cells
- Cell size [2, 15]: 19.3 μm
- Viability [2, 15]: 95.5%
- Cell number [2, 16]: 1.2 × 10^7 cells
- Cell size [2, 16]: 19.7 μm
- Viability [2, 16]: 88.9%
- Cell number [2, 17]: 1.5 × 10^8 cells
- Cell size [2, 17]: 18.8 μm
- Viability [2, 17]: 95.6%
- Cell number [2, 18]: 2.3 × 10^7 cells
- Cell size [2, 18]: 19.6 μm
- Viability [2, 18]: 87.1%
- Cell number [2, 19]: 1.4 × 10^7 cells
- Cell size [2, 19]: 18 μm
- Viability [2, 19]: 82%
- Cell number [2, 20]: 1.4 × 10^7 cells
- Cell size [2, 20]: 19.3 μm
- Viability [2, 20]: 88.2%
- Cell number [2, 21]: 2.1 × 10^8 cells
- Cell size [2, 21]: 17.8 μm
- Viability [2, 21]: 88.0%
- differentiation into chondrocytes versus positive control group [3]: did not differ from those of the positive control group
- differentiation into osteocytes versus positive control group [4]: did not differ from those of the positive control group
- differentiation into adipocytes versus positive control group [5]: did not differ from those of the positive control group
- expression of CD markers versus positive control group ([6]; 30 KGy gamma radiation, post-treated with 1% vitamin C, passage 4): did not differ from that in the positive control group
- CD31 expression (FACS) [6, 13]: 0.52
- CD34 expression (FACS) [6, 13]: 0.31
- CD45 expression (FACS) [6, 13]: 0.49
- CD73 expression (FACS) [6, 13]: 94.30
- CD90 expression (FACS) [6, 13]: 99.98
- CD31 expression (FACS) [6, 17]: 0.16
- CD34 expression (FACS) [6, 17]: 0.14
- CD45 expression (FACS) [6, 17]: 0.11
- CD73 expression (FACS) [6, 17]: 93.42
- CD90 expression (FACS) [6, 17]: 99.99
- CD31 expression (FACS) [6, 21]: 0.47
- CD34 expression (FACS) [6, 21]: 0.70
- CD45 expression (FACS) [6, 21]: 0.78
- CD73 expression (FACS) [6, 21]: 91.45
- CD90 expression (FACS) [6, 21]: 99.99
